Where two headings read alike, the source gives them in different places.
Molecular target: T1, hmGluR1 receptor (Homo sapiens, UniProt Q13255)
T1 construct: expressed in transfected cells
Experiment: IC50 determination: intracellular calcium mobilization (FLIPR) upon Quisqualate stimulation in CHO cells stably expressing hmGluR1
Type: cell-based
Conditions: against Quisqualate 1 μM (EC80)
Procedure, shortened: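 CHO cells stably expressing hmGluR1 were kept overnight in DMEM high glucose with GPT and 1 mM pyruvate, then loaded 2 h with Calcium 3 dye.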

[1] = class symbols, read-out: mGIuR 1 IC50
[2] = FLIPR calcium mobilization, read-out: mGluR1 IC50
[3] = FLIPR calcium mobilization, read-out: IC50 Class

T1 sequence (Q13255 19-1194): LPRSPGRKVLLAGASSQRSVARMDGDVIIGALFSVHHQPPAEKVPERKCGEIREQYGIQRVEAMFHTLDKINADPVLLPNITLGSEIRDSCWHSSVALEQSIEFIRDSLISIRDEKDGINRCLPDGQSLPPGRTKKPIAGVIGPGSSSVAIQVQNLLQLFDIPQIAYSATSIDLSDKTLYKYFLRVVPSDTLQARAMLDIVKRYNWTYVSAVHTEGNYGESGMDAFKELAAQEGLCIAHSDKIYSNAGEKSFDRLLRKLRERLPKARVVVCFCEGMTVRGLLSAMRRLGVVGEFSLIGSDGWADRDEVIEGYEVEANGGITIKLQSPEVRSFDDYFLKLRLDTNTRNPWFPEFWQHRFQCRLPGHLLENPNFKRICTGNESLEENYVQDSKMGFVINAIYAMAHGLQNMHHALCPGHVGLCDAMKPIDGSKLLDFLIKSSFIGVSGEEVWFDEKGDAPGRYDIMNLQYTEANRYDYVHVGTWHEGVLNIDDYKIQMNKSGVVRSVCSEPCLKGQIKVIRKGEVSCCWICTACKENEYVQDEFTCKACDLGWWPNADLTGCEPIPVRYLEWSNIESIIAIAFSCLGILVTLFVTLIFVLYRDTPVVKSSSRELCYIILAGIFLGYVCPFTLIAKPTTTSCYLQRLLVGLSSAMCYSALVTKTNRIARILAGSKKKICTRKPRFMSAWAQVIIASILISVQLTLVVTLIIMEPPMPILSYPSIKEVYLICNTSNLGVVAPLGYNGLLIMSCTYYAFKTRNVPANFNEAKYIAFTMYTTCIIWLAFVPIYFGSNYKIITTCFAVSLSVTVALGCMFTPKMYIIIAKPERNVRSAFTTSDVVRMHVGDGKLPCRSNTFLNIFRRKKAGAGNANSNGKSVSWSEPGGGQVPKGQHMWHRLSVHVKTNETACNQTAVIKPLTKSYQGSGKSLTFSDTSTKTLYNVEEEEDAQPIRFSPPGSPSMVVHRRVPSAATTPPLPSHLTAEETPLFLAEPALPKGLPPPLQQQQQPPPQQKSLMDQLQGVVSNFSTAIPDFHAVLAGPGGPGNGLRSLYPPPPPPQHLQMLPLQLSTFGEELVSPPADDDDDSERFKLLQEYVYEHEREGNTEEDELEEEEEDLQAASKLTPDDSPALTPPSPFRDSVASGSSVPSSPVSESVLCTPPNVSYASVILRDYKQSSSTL

| IC50 [1] [µM] | IC50 [3] [µM] | further results | Structure (SMILES) |
| --- | --- | --- | --- |
| > 1 | – | – | CN(C)c1ccnc2sc3c(=O)n(CCN4CCOCC4)cnc3c12 [15N] |
| < 0.05 | – | – | Cc1cc(N(C)C)c2c(n1)sc1c(=O)n(-c3ccccc3)cnc12 [7DB] |
| > 1 | – | – | CSc1ccc(-n2cnc3c4c(N(C)C)ccnc4n(C)c3c2=O)cc1 [134C] |
| < 0.05 | – | IC50 [2]: 0.00148 µM | CN(C)c1ccnc2sc3c(=O)n(-c4ccc5sccc5c4)cnc3c12 [7BM] |
| – | 0.15 to 1 | – | COc1ncnc2sc3c(=O)n(-c4ccc(Cl)cc4)cnc3c12 [95FO] |
| < 0.05 | – | IC50 [2]: 0.00127 µM | CNc1ccnc2sc3c(=O)n(-c4ccc(C)cc4)cnc3c12 [28AI] |
| > 1 | – | – | Cc1ccc(-n2cnc3c(sc4nccc(O)c43)c2=O)cc1 [26C] |
| – | 0.15 to 1 | – | COc1cc(-n2cnc3c(sc4nccc(N(C)C)c43)c2=O)ccc1F [28FW] |
| 0.15 to 1 | – | – | COc1ccc(-n2c(C(F)(F)F)nc3c(sc4nccc(N(C)C)c43)c2=O)cc1 [117B] |
| > 1 | – | – | CNc1ccnc2c1c1ncn(-c3ccc(C)cc3)c(=O)c1n2Cc1ccc(OC)cc1 [134I] |
| > 1 | – | – | Cc1ccc(-n2cnc3c(sc4nccc(C(=O)O)c43)c2=O)cc1 [compound 77] |
| – | < 0.05 | – | CSCCNc1ncnc2sc3c(=O)n(-c4ccc(C)cc4)cnc3c12 [95FR] |
| – | < 0.05 | – | C=C(C)CNc1ncnc2sc3c(=O)n(-c4ccc(F)cc4)cnc3c12 [95FI] |
| 0.15 to 1 | – | – | Cc1ccc(-n2c(C)nc3c(sc4nccc(NCC(F)(F)F)c43)c2=O)cc1 [113L] |
| 0.05 to 0.15 | – | – | CCCNc1ccnc2sc3c(=O)n(C4CCCCC4)cnc3c12 [28Q] |
| 0.05 to 0.15 | – | – | CC(c1ccccc1)n1cnc2c(sc3nccc(N(C)C)c32)c1=O (centres unmarked) [7AH] |
| < 0.05 | – | – | CC(=O)Oc1ccc(-n2cnc3c(sc4nccc(N(C)C)c43)c2=O)cc1 [compound 138] |
| – | < 0.05 | – | Cc1ccc(-n2cnc3c(sc4nccc(NCCC(C)O)c43)c2=O)cc1 (centres unmarked) [28CY] |
| > 1 | – | – | COc1cc(Br)c(-n2cnc3c(sc4nccc(N(C)C)c43)c2=O)c(Br)c1 [7BX] |
| < 0.05 | – | – | Cc1ccc(-n2c(C)nc3c(sc4nccc(N(C)C)c43)c2=O)cc1 [113A] |
| – | < 0.05 | – | O=c1c2sc3nccc(NC4CC4)c3c2ncn1-c1ccc2c(c1)OCCO2 [28CK] |
| 0.15 to 1 | – | – | CNc1c(C#N)cnc2sc3c(=O)n(C4CCCCC4)cnc3c12 [compound 48] |

| IC50 [1] [µM] | IC50 [3] [µM] | further results | Structure (SMILES) |
| --- | --- | --- | --- |
| > 1 | – | – | CN(C)c1ccnc2sc3c(=O)n(NC(=O)C4CCC4)c(C4CCC4)nc3c12 [65D] |
| – | < 0.05 | – | CCN(C)c1ccnc2sc3c(=O)n(-c4ccc5c(c4)CCO5)cnc3c12 [28CH] |
| – | < 0.05 | – | CSCCNc1ccnc2sc3c(=O)n(-c4ccc(C)cc4)cnc3c12 [28EV] |
| 0.05 to 0.15 | – | – | CCc1nc2c(sc3nccc(N(C)C)c32)c(=O)n1-c1ccc(C)cc1 [116A] |
| 0.15 to 1 | – | – | COc1ccc(-c2c(C(C)=O)c(C)nc3sc4c(=O)n(-c5ccccc5)cnc4c23)cc1 [P-12] |
| – | 0.05 to 0.15 | – | CCc1ccc(-n2cnc3c(sc4nccc(NC5CC5)c43)c2=O)cc1 [28BT] |
| < 0.05 | – | – | Cc1ccc(-n2cnc3c(sc4nccc(NCC(F)(F)F)c43)c2=O)cc1 [28AU] |
| < 0.05 | – | – | CN(C)c1ccnc2sc3c(=O)n(-c4ccsc4)cnc3c12 [15AA] |
| – | < 0.05 | – | O=c1c2sc3ncnc(NC4CC4)c3c2ncn1-c1ccc2ncsc2c1 [95AZ] |
| 0.15 to 1 | – | – | COc1ccc(NC(=O)CSc2nc3c(sc4nc(C)cc(C)c43)c(=O)n2-c2ccc(Cl)cc2)cc1 [P-6] |
| < 0.05 | – | – | CN(C)c1ccnc2sc3c(=O)n(-c4ccc(C5CC5)cc4)cnc3c12 [137A] |
| < 0.05 | – | – | CN(C)c1ccnc2sc3c(=O)n(-c4ccc5c(c4)CCO5)cnc3c12 [7CG] |
| 0.15 to 1 | – | – | CN(C)c1ccnc2sc3c(=O)n(Cc4cccs4)cnc3c12 [15I] |
| – | 0.15 to 1 | – | O=c1c2sc3nccc(OCC4CC4)c3c2ncn1-c1ccc(Br)cc1 [66L] |
| – | < 0.05 | IC50 [2]: 0.00018 µM | CNc1ccnc2sc3c(=O)n(-c4ccc(Cl)cc4)cnc3c12 [compound 193] |
| > 1 | – | – | CN(C)c1ccnc2sc3c(=O)n(-c4ccc(C(C)(C)C)cc4)cnc3c12 [7BB] |
| 0.05 to 0.15 | – | – | Cc1ccccc1-n1cnc2c(sc3nccc(N(C)C)c32)c1=O [7CW] |
| – | 0.05 to 0.15 | – | O=c1c2sc3nccc(N4CCC4)c3c2ncn1-c1ccc(Cl)cc1 [28GJ] |
| – | > 1 | – | Cc1ccc(-n2cnc3c(sc4nccc(CN(CC5CC5)CC5CC5)c43)c2=O)cc1 [169B] |
| 0.05 to 0.15 | – | – | CN(C)c1c(Cl)cnc2sc3c(=O)n(C4CCCCC4)cnc3c12 [compound 41] |
| – | < 0.05 | – | O=c1c2sc3nccc(NCCO)c3c2ncn1-c1ccc(Cl)cc1 [28GB] |
| < 0.05 | – | – | C=CCNc1ccnc2sc3c(=O)n(-c4ccc(C)cc4)cnc3c12 [72I] |

| IC50 [1] [µM] | IC50 [3] [µM] | further results | Structure (SMILES) |
| --- | --- | --- | --- |
| > 1 | – | – | CCCn1cnc2c(sc3nccc(N(C)C)c32)c1=O [15L] |
| – | 0.15 to 1 | – | O=c1c2sc3nccc(NC4CC4)c3c2ncn1-c1ccncc1 [28ED] |
| < 0.05 | – | – | CCNc1ccnc2sc3c(=O)n(-c4ccc(C)cc4)cnc3c12 [131D] |
| 0.05 to 0.15 | – | – | CN(C)c1ccnc2sc3c(=O)n(-c4ccc5nc[nH]c5c4)cnc3c12 [7AW] |
| < 0.05 | – | – | CNc1c(Br)cnc2sc3c(=O)n(-c4ccc(OC)cc4)cnc3c12 [compound 152] |
| > 1 | – | – | CCN(CC)C(=O)N1CCN(c2ccnc3sc4c(=O)n(C5CCCCC5)cnc4c23)CC1 [compound 64] |
| – | < 0.05 | IC50 [2]: 0.00195 µM | C=CCNc1ccnc2sc3c(=O)n(-c4ccc(OC)cc4)cnc3c12 [28DS] |
| > 1 | – | – | O=c1c2sc3nccc(N4CCCC4)c3c2ncn1C1CCCCC1 [28A] |
| 0.15 to 1 | – | – | O=c1c2sc3nccc(NC4CCC4)c3c2ncn1C1CCCCC1 [28W] |
| – | > 1 | – | O=c1c2sc3ncnc(Nc4ccccc4)c3c2ncn1-c1ccccc1 [95GC] |
| < 0.05 | – | – | C=CCOc1ccnc2sc3c(=O)n(-c4ccc(C)cc4)cnc3c12 [66D] |
| < 0.05 | – | – | CCNc1ccnc2sc3c(=O)n(-c4ccc5ncsc5c4)cnc3c12 [131C] |
| > 1 | – | – | CN(C)c1cncc2sc3c(=O)n(-c4ccc(O)cc4)cnc3c12 [37H] |
| – | 0.15 to 1 | – | O=c1c2sc3nccc(CC4CC4)c3c2ncn1-c1ccc(Cl)cc1 [compound 179] |
| 0.15 to 1 | – | – | COc1ccnc2sc3c(=O)n(C4CCCCC4)cnc3c12 [25A] |
| – | < 0.05 | – | CN(C)c1ccnc2sc3c(=O)n(-c4ccc(C5CC5)c(F)c4)cnc3c12 [137G] |
| – | < 0.05 | – | C=C(C)CNc1ccnc2sc3c(=O)n(-c4ccc(Br)cc4)cnc3c12 [28FC] |
| – | > 1 | – | COc1ccc(-n2cnc3c(sc4nccc(OC)c43)c2=O)c(C)c1 [28BL] |
| 0.15 to 1 | – | – | COc1ccnc2sc3c(=O)n(-c4ccc5scnc5c4)cnc3c12 [25D] |
| – | < 0.05 | – | COc1ccc(-n2cnc3c(sc4nc(N)cc(N(C)C)c43)c2=O)cc1 [59F] |
| – | < 0.05 | – | Cc1nc(N)c2c(n1)sc1c(=O)n(-c3ccc(Cl)cc3)cnc12 [95EV] |
| < 0.05 | – | – | Cc1ccc(-n2cnc3c(sc4nccc(N(C)C)c43)c2=O)cc1 [7BF] |

| IC50 [1] [µM] | IC50 [3] [µM] | further results | Structure (SMILES) |
| --- | --- | --- | --- |
| < 0.05 | – | – | CN(C)c1ccnc2sc3c(=O)n(N4CCCCCC4)cnc3c12 [60D] |
| < 0.05 | – | – | CN(C)c1ccnc2sc3c(=O)n(-c4ccc5occc5c4)cnc3c12 [7BY] |
| – | < 0.05 | – | COc1ccc(-n2cnc3c(sc4nc(N)cc(N)c43)c2=O)cc1 [59H] |
| > 1 | – | – | Cc1ccc(-n2cnc3c(sc4nc(N5CCN(C)CC5)cc(N(C)C)c43)c2=O)cc1 [59A] |
| – | 0.15 to 1 | – | C=CCCOc1ccnc2sc3c(=O)n(-c4ccc(Br)cc4)cnc3c12 [66K] |
| – | < 0.05 | – | C=CCOc1ccnc2sc3c(=O)n(-c4ccc(Cl)cc4)cnc3c12 [66F] |
| > 1 | – | – | CN(C)c1ccnc2sc3c(=O)n(NC(=O)C(F)(F)F)c(C(F)(F)F)nc3c12 [65B] |
| < 0.05 | – | – | Cc1ccc(-n2cnc3c(sc4nc(C)cc(N(C)C)c43)c2=O)cc1 [7CK] |
| – | > 1 | – | COc1ccc(-n2cnc3c(sc4nccc(NC5CC5)c43)c2=O)cc1Cl [131K] |
| 0.15 to 1 | – | – | CN(C)c1c(Br)cnc2sc3c(=O)n(C4CCCCC4)cnc3c12 [compound 43] |
| 0.15 to 1 | – | – | CN(C)c1ccnc2sc3c(=O)n([C@H]4CC[C@H](O)CC4)cnc3c12 [15T] |
| – | 0.05 to 0.15 | – | Cc1ccc(-n2cnc3c(sc4cnnc(N(C)C)c43)c2=O)cc1 [167B] |
| 0.05 to 0.15 | – | – | CCNc1ccnc2sc3c(=O)n(-c4ccc(CC)cc4)cnc3c12 [131F] |
| – | 0.15 to 1 | – | C=C(OCC)c1ccnc2sc3c(=O)n(-c4ccc(Cl)cc4)cnc3c12 [183A] |
| 0.15 to 1 | – | – | COc1ccc(-n2cnc3c(sc4nccc(NCC5CC5)c43)c2=O)cc1 [28AX] |
| > 1 | – | – | O=c1c2sc3nccc(OS(=O)(=O)C(F)(F)F)c3c2ncn1C1CCCCC1 [27A] |
| – | 0.15 to 1 | – | O=c1c2sc3ncnc(NC4CCC4)c3c2ncn1-c1ccc(F)cc1 [95DF] |
| 0.15 to 1 | – | – | COc1ccc(-n2cnc3c(sc4cncc(N(C)C)c43)c2=O)cc1F [37G] |
| < 0.05 | – | – | COc1ccc(-n2cnc3c(sc4nccc(N(C)C)c43)c2=O)cc1 [7BG] |

From US7989464B2, “mGluR1 antagonists as therapeutic agents” (Schering Corporation, priority 2004, dated 2011)
